Laboratory results published in US9889180B2, “Method of treating cancer” (Agency for Science, Technology and Research, priority 2012, dated 2018).
“Also recorded” adds a separate entry of the source.

What was measured:
[1] = tested on: IFNGR1 expression and IFN-γ-STAT1 signaling; experiment: qRT-PCR and western blot of IFNGR1 expression and IFN-γ signaling in DU145 cells; assay type: cell-based, human
Procedure: All cells were maintained at 37° C. with 5% CO2. Cells were grown until they were 80% confluent before they are treated the respective drugs. For drug treatment, DZNep and GSK126 were purchased from Pharmaron Inc. (Beijing, China), GSK343 was kindly provided by Chemical Probes of University of Toronto, 5′Aza, TSA and human recombinant IFN-γ was purchased from Sigma. For rescue experiment using IFNGR1 blocking antibody, the neutralizing antibody that specifically targets IFNGR1 (anti-CD119, GIR-208, BD Pharmingen) was added to the medium 4 hour prior to the addition of DZNep or/and IFN-γ. Total RNA was isolated by using Trizol (Invitrogen) and purified with the RNeasy Mini Kit (Qiagen). The microarray hybridization was performed using the Illumina Gene Expression Sentrix BeadChip HumanRef-8_V3, and data analysis was performed by GeneSpring software from Agilent Technologies as described previously. The analyzed gene sets by GeneSpring were next subjected to Ingenuity Pathway Analysis (IPA) for gene ontology (GO) analysis. Reverse transcription and quantitative PCR assays were performed using High Capacity cDNA Archive kit and KAPA SyBr Fast qPCR kit (KAPA biosystems). For quantification of mRNA levels, 18S level was used as an internal control. All reactions were analyzed in an Applied Biosystems PRISM 7500 Fast Real-Time PCR system in 96-well plate format. Western Blotting was performed as described previously. Briefly, Cells were scraped, collected, and lysed in RIPA buffer. To release histones from chromatin, cell lysates were further sonicated for 15 sec using a XL2000 Microson Ultrasonic Processor (Misonix). Equal amounts of protein (30 μg) were separated on SDS-polyacrylamide gels and transferred to PVDF membranes. The blots were probed with antibodies against EED (07-368), SUZ12 (07-379), trimethylated H3-K27 (07-449), Acetyl-Histone H3 (06-599), which were purchased from Upstate Biotechnology. IFNGR1 (GIR-94) and anti-IFI16 (1G7) were purchased from Santa Cruz. EZH2 phospho S21 (00388) was purchased from Bethyl Laboratories. EZH2 (AC22), P110α PI3K, p-AKT (T308), p-AKT (S473), pSTAT1Y701, total STAT1, Histone H3 (3H1), Beclin-1 and cleaved PARP were purchased from Cell Signaling. Myc and Actin were purchased from Roche Applied Science and Sigma-Aldrich, respectively.

EZH2/PRC2 and H3K27me3 = biological target: T1, EZH2/PRC2 and H3K27me3 (Homo sapiens, UniProt Q15910); experiment: Western blot of PRC2 proteins and H3K27me3 in DU145 cells; assay type: cell-based; conditions: DZNep
T1 construct: endogenous in cells; host or cells: DU145 (named by the earlier reading of the assay)
T1 sequence (Q15910 whole entry): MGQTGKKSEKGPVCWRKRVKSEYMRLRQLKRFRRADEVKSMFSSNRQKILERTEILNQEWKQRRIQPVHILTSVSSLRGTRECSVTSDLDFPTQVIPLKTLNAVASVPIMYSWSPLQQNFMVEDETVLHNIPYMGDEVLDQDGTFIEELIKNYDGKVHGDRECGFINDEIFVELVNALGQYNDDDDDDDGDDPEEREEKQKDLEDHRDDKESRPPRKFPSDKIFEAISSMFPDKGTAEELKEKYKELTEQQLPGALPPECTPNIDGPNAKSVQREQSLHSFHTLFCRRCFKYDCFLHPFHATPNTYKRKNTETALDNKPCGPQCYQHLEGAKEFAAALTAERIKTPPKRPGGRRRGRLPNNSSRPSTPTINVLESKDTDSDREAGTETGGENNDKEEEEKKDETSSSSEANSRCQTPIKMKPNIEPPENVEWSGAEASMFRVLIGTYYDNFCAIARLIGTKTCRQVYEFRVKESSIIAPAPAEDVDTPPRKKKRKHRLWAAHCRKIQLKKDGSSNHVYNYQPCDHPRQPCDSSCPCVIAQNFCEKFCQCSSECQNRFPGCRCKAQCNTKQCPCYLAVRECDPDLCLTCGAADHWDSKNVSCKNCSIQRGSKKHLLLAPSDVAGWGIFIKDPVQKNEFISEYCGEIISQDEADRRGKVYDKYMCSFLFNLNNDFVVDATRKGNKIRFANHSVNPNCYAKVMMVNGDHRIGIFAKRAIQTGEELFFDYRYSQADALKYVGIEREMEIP
T1 sequence (O75530 whole entry partner): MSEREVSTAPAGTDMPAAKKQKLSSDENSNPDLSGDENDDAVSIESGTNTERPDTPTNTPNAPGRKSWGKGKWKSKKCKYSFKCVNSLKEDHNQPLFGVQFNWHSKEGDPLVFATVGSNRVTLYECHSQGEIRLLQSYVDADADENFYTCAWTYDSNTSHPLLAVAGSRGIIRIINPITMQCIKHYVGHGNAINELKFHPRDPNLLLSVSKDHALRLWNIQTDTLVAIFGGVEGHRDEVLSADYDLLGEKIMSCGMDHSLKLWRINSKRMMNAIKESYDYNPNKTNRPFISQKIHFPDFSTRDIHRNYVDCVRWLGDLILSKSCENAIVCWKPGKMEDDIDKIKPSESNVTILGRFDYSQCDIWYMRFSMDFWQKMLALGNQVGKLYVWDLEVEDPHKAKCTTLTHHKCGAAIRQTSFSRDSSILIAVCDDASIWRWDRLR
T1 sequence (Q15022 whole entry partner): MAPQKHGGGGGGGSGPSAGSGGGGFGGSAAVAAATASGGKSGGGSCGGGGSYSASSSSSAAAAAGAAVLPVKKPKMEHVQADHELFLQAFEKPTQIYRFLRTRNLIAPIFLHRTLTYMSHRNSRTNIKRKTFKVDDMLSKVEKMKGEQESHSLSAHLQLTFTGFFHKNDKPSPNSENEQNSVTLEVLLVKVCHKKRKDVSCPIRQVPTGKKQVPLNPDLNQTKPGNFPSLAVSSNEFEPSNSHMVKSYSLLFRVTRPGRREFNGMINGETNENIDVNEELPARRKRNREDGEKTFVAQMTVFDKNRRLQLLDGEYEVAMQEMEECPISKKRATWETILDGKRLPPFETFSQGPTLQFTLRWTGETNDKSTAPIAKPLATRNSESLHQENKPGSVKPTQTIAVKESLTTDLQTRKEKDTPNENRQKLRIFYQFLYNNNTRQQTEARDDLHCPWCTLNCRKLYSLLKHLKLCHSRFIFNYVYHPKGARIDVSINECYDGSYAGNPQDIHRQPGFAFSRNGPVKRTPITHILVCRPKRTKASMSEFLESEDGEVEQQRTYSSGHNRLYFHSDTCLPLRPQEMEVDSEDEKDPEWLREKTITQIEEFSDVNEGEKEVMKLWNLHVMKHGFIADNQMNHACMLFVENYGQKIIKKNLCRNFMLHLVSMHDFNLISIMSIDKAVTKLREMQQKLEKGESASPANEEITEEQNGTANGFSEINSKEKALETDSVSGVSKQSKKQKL
Procedure: (§1) Western Blotting was performed as described previously. Briefly, Cells were scraped, collected, and lysed in RIPA buffer. To release histones from chromatin, cell lysates were further sonicated for 15 sec using a XL2000 Microson Ultrasonic Processor (Misonix). Equal amounts of protein (30 μg) were separated on SDS-polyacrylamide gels and transferred to PVDF membranes. The blots were probed with antibodies against EED (07-368), SUZ12 (07-379), trimethylated H3-K27 (07-449), Acetyl-Histone H3 (06-599), which were purchased from Upstate Biotechnology. IFNGR1 (GIR-94) and anti-IFI16 (1G7) were purchased from Santa Cruz. EZH2 phospho S21 (00388) was purchased from Bethyl Laboratories. EZH2 (AC22), P110α PI3K, p-AKT (T308), p-AKT (S473), pSTAT1Y701, total STAT1, Histone H3 (3H1), Beclin-1 and cleaved PARP were purchased from Cell Signaling. Myc and Actin were purchased from Roche Applied Science and Sigma-Aldrich, respectively.

DU145 cells = experiment: FACS sub-G1 DNA analysis (apoptosis) in DU145 cells; assay type: cell-based, human; conditions: for apoptosis (sub-G1) after knockdown: siRNA knockdown in combination with IFN-γ
Procedure: For the assessment of cell death, cells were harvested in 70% ethanol. Fixed cells were stained with Propidium Iodide (P.I) (50 μg/mL). The stained cells were analyzed for DNA content by FACS in a FACSCalibur (Becton Dickinson Instrument). % of cell death was defined as the sub-G1 population quantified using the CellQuest software (Becton Dickinson). The percentage of dead cells or sub-G1 cells was calculated by comparing the results of each experiment to the results from DMSO-treated cells. Each assay was repeated a minimum of three times, with results reported as means+s.e.m.

[2] = tested on: IFNGR1 expression and STAT1 activation; experiment: qRT-PCR and western blot of IFNGR1 and IFN signaling in MCF7 cells; assay type: cell-based, human; conditions: for IFNGR1 expression: ER+ luminal MCF7 cells
Procedure: (§2) Total RNA was isolated by using Trizol (Invitrogen) and purified with the RNeasy Mini Kit (Qiagen). The microarray hybridization was performed using the Illumina Gene Expression Sentrix BeadChip HumanRef-8_V3, and data analysis was performed by GeneSpring software from Agilent Technologies as described previously. The analyzed gene sets by GeneSpring were next subjected to Ingenuity Pathway Analysis (IPA) for gene ontology (GO) analysis. Reverse transcription and quantitative PCR assays were performed using High Capacity cDNA Archive kit and KAPA SyBr Fast qPCR kit (KAPA biosystems). For quantification of mRNA levels, 18S level was used as an internal control. All reactions were analyzed in an Applied Biosystems PRISM 7500 Fast Real-Time PCR system in 96-well plate format.
as §1

IFNGR1 expression [3] = experiment: qRT-PCR of IFNGR1 in MDA-MB-231 cells; assay type: cell-based, human; conditions: ER− basal like MDA-MB-231 cells
Procedure: as §2
as §1, with “EZH2 phospho S21 (00388) was purchased from Bethyl Laboratories. EZH2 (AC22), P110α PI3K, p-AKT (T308), p-AKT (S473), pSTAT1Y701, total STAT1, Histone H3 (3H1), Beclin-1 and cleaved PARP were purchased from Cell Signaling. Myc and Actin were purchased from Roche Applied Science and Sigma-Aldrich, respectively.” left out

[4] = tested on: PC3-derived prostatospheres; experiment: Prostatosphere formation assay, PC3; assay type: cell-based, human; conditions: EZH2 knockdown in combination with IFN-γ, 7 days
IFNGR1 expression [5] = experiment: qRT-PCR of IFNGR1 and IFNAR1 in RWPE1-MYC cells; assay type: cell-based, human
Procedure: Target-specific siRNA and non-targeting control siRNA were purchased from 1st Base Singapore and Integrated DNA technologies (IDT) with the following target sequences respectively: EZH2 siRNA: 5′-GACUCUGAAUGCAGUUGCU-3′ (SEQ ID NO: 1); MYC siRNA: 5′-[…]-3′ (SEQ ID NO:2). All siRNA were designed by 1st Base Singapore and IDT respectively. For transfection, 30 nM siRNAs were used to transfect cells. 48 h after transfection cell pellets were collected and subjected indicated assays.
as §2

[6] = in response to IFN-γ stimulation

| Compound | expression of IFN genes ([1]; DZNep (2.5 μM) combined with IFN-γ) | STAT1 phosphorylation ([1]; DZNep (2.5 μM) combined with IFN-γ, 3 days) | IFNGR1 expression ([1]; DZNep (2.5 μM), 3 days, hydrochloride) | IFNAR1 expression ([1]; DZNep treatment) | PRC2 protein levels (EZH2, EED, SUZ12) (EZH2/PRC2 and H3K27me3) | depletion of H3K27me3 (EZH2/PRC2 and H3K27me3) | apoptosis (sub-G1) (DU145 cells; DZNep (2.5 μM) combined with increasing doses of IFN-γ, 3 days) | IFNGR1 expression ([2]; hydrochloride) | STAT1 activation and PARP cleavage ([2]; MCF-7 cells, DZNep co-treated with IFN-γ) | IFNGR1 expression (IFNGR1 expression [3]) | IFNGR1 protein expression after knockdown [1] | STAT1 phosphorylation and IFI16 expression after knockdown [1, 6] | activation of IFN genes after knockdown [1, 6] | apoptosis (sub-G1) after knockdown (DU145 cells) | apoptosis (sub-G1) after knockdown (DU145 cells; listed as siEZH2) | tumorsphere formation after knockdown [4] | IFNGR1 expression [2] | IFNGR1 expression after knockdown (IFNGR1 expression [5]) |
| --- | --- | --- | --- | --- | --- | --- | --- | --- | --- | --- | --- | --- | --- | --- | --- | --- | --- | --- |
| Cl.Nc1nccc2c1ncn2[C@@H]1C=C(CO)[C@@H](O)[C@H]1O [DZNep, (−)-1-[(1R,4R,5S)-3-(Hydroxymethyl)-4,5-dihydroxy-2-cyclopenten-1-yl]4-aminoimidazo[4,5-c]pyridine hydrochloride] | strong inductions of IFN genes | strong inductions | induced the expression of IFNGR1; also recorded: induced a marked expression of IFNGR1 | did not change IFNAR1 expression | depleted EZH2, as well as the other two PRC2 proteins EED and SUZ12 | much lower efficiency in depleting H3K27me3 | synergistic induction of cell death | induction of IFNGR1 at both mRNA and protein levels; also recorded: restored the IFNGR1 expression | increased STAT1 activation and PARP cleavage | not seen | – | – | – | – | – | – | – | – |
| EZH2 knockdown: EZH2 siRNA: 5′-GACUCUGAAUGCAGUUGCU-3′ (SEQ ID NO: 1) (other strand not given here) | – | – | – | – | – | – | – | – | – | not seen | restored the IFNGR1 protein expression | enhanced the STAT1 phosphorylation and the expression of IF116 | robust activation of IFN genes | apoptosis induction | specifically enhances IFN-γ mediated cell death | efficiently inhibited the tumorsphere formation | induction of IFNGR1 at both mRNA and protein levels | restore the expression of IFNGR1 |
